Experiments:
[1] = clinical trials; twice-weekly regimen; cited from earlier work
[2] = system: DLD-1 cells (human colorectal cancer cells); conditions: constant ratio of IC50s, CI<1 synergism, CI=1 additivity, CI>1 antagonism
Experimental: (§1) Human colon adenocarcinoma cell line, DLD-1, and human breast adenocarcinoma cell line, SKBr-3, were obtained from American Type Culture Collection (manassas, VA). DLD-1 cells were maintained in RPMI 1640 medium supplemented with 10% fetal bovine serum, and SKBr-3 cells were cultured in McCoy's 5a medium supplemented with 10% fetal bovine serum. 17-DMAG and 17-AAG were obtained using published procedures. Other cytotoxic agents were purchased commercially from suppliers such as Sigma Chemical Co. (St. Louis, Mo.) and Sequoia Research Products (Oxford, UK).
(§2) Cells were seeded in duplicate in 96-well microtiter plates at a density of 5,000 cells per well and allowed to attach overnight. […] Cell viability was determined using the MTS assay (Promega). For the drug combination assay, cells were seeded in duplicate in 96-well plates (5,000 cells/well). […] Cell viability was determined by the MTS assay.
(§3) Synergism, additivity or antagonism was determined by median effect analysis using the combination index (CI) calculated using Calcusyn (Biosoft, Cambridge, UK). […] The quantities [Dx]1 and [Dx]2 represent the concentrations of the first and second drug, respectively, that when used alone provide a response of x % in the assay. […] The “enhancing” effect of two drugs can also be determined.

[3] = system: SKBr cells (human breast cancer cells); assay: Cell viability (MTS) drug combination assay, combination index, SKBr-3 cells; format: cell-based; conditions: constant ratio of IC50s, CI<1 synergism
Experimental: as §1, §2, §3

[4] = 17-AAG 24 h before antibiotic, then 48 h
[5] = antibiotic alone 24 h, then 17-AAG for 48 h

SMILES | MTD [1] | CI value, combination with 17-AAG, 17-AAG Pre-Administration [2, 4] | CI value, combination with 17-AAG, 17-AAG Post-Administration [2, 5] | CI value, combination with 17-AAG, 17-AAG Pre-Administration [3, 4] | CI value, combination with 17-AAG, 17-AAG Post-Administration [3, 5]
C=CCNC1=C2C[C@@H](C)C[C@H](OC)[C@H](O)[C@@H](C)/C=C(\C)[C@H](OC(N)=O)[C@@H](OC)/C=C\C=C(/C)C(=O)NC(=CC1=O)C2=O [17-AAG, 17-(allylamino)-17-desmethoxygeldanamycin] | about 220 mg/m2 | – | – | – | –
COc1cccc2c1C(=O)c1c(O)c3c(c(O)c1C2=O)C[C@@](O)(C(=O)CO)C[C@@H]3O[C@H]1C[C@H](N)[C@H](O)[C@H](C)O1 [Doxorubicin, doxorubicin] | – | 0.58 ± 0.15 | 0.82 ± 0.09 | 0.81 ± 0.05 | 0.45 ± 0.12
